Experiments:
[1] = system: TSC2+/− LAM-SMCs; test: Cell invasion into 3D HA hydrogels, LAM-SMCs; format: cell-based, human; conditions: for invasion, selectivity towards LAM-SMCs vs control SMCs: 80 kinase inhibitor screen, 5 μM, 384-well 3D hydrogel
Experimental: (§1) HA (230 kDa) was functionalized with furfurylamine as previously described^[16] Furanyl-modified HA/MMPx-(maleimide)2 hydrogels were prepared as previously described ^[16] with the following modifications: To prepare 1.0 mL of 0.9% HA hydrogel with 25 μM vitronectin peptide for SMC culture, HA-furanyl (65% furanyl substitution, 9.0 mg HA, 13.3 μmol furanyl) was dissolved in 450 μL of dPBS (adjusted to pH 6.5), and added to 357.7 μL of dPBS (pH 6.5). 150.1 μL of maleimide2-MMP-degradable crosslinker peptide dissolved in 0.1 M MES buffer (pH 5.5, 50 mg/mL, 2.8 μmol of peptide, 5.6 μmol of maleimide) and 3.75 μL of maleimide-vitronectin peptide dissolved in 0.1 M MES buffer (pH 5.5, 12 mg/mL, 25 nmol) were added to the HA-furanyl solution and carefully mixed to prevent the formation of air bubbles. 38.5 μL of a thiolated methyl cellulose solution (2.6 mg/mL MC-SH in DI H2O, 100 nmolfree thiols/mgMC) was then added to this solution and mixed carefully with a pipette. Hydrogel formulations were tuned for lung cancer cells. For culturing primary cells from lung cancer tissue biopsies, 100 μM vitronectin peptides were used. For NCI-H1299, NCI-H446 and human bronchial epithelial cells, 100 μM vitronectin peptides and 100 μM fibronectin peptides were used. To prepare gels in 384-well plates, 15 μL of the hydrogel solutions were added to each well in a 384-well plate and placed in the incubator overnight at 37° C.
(§2) Excess sterile water was then added to wells lining the outside of the plates to prevent hydrogel evaporation. […] Gels were then equilibrated with either RPMI-1640 containing 1% FBS (for lung cancer cells) or M231 SMC media (75 μL, >45 mins). Media was then removed, and for SMC culture, 15 μL of M231 supplemented with 25% SMGS (containing a final FBS concentration of 1%) was added into each well for at least 1 h prior to cell seeding. For drug treatment assays, this 15 μL volume of M231 with 25% SMGS also includes a 5× concentration of the desired drug. For larger drug screening assays, Y-27632 (Rock inhibitor, 10 μM) was used as a negative control for cell invasion, and verteporfin (1 μM) was used as a positive control for cell toxicity (SyTox Green staining). For lung cancer cell culture, cells in RPMI media containing 1% FBS was added to each well.
(§3) SMCs were cultured according to reported protocols.^[12a] In brief, cells were cultured in M231 media with Smooth Muscle Growth Supplement (SMGS) and gentamycin (ThermoFisher Scientific) at 37° C. with 5% CO2. Cells were passaged using 0.05% trypsin/EDTA for 3 min at 37° C., and inhibited using M231 media. 3000 cells in 45 μL of M231 without SMGS were added to each well of a 384-well plate containing 3D HA hydrogels.
(§4) After 5 days of culture in 3D HA gels, 30 μL media was carefully removed. To each well, 20 μL of a solution containing SyTox Green (1/50,000) in PBS was added and incubated for 1.5 h at 37° C. Gels were then carefully washed with PBS twice. Cells were then fixed with 4% PFA for 1.5 h in the dark at room temperature. PFA was removed and gels were washed with PBS. A solution of Hoechst (1/1000, 20 μL) was then added to each well for at least 1.5 h in the dark, followed by washing with PBS (3 times). To label the gel surface, fluorescent microspheres (100 nm, orange, Phosphorex) were diluted in PBS (1/100) and centrifuged to separate larger, aggregated microspheres. 20 μL of the resulting supernatant were then added to each well and the 384-well plate was left undisturbed overnight. For drug screening experiments involving treatment with 80 drugs simultaneously, silica gel particles (40-63 μm, 230-400 mesh, SiliCycle) were used to label the […]. A slurry solution (5 mg/mL) of silica gel particles in PBS containing 0.01% sodium azide was mixed and immediately added to each well. Particles settled after 20 seconds and plates could be immediately imaged.
(§5) Z-stacked images were obtained using a Cellomics high content imaging instrument as described above. […]

[2] = system: TSC2+/− LAM-SMCs; test: Cell viability (SyTox Green), LAM-SMCs; format: cell-based, human; conditions: for cell viability, selectivity towards LAM-SMCs vs control SMCs: 80 kinase inhibitor screen, 5 μM, 384-well 3D hydrogel
Experimental: as §1, §2, §3, §4, §5

[3] = system: VEGF-A; conditions: some glioblastoma patients; cited from earlier work
Chain of VEGF-A (P15692 207-311 limits assumed): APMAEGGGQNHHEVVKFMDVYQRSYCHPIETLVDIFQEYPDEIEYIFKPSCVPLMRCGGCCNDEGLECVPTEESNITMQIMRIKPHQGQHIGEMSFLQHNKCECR

[4] = system: TSC2+/+ control SMCs; test: Cell invasion into 3D HA hydrogels, control SMCs; format: cell-based, human; conditions: Y-27632 treatment (10 μM per FIG. 8 legend)
Experimental: as §1, with “To prepare gels in 384-well plates, 15 μL of the hydrogel solutions were added to each well in a 384-well plate and placed in the incubator overnight at 37° C.” left out

[5] = system: MMP9; test: Gelatin zymography of conditioned media (MMP9 secretion), LAM-SMCs; format: cell-based, human; conditions: Y-27632 treatment (10 μM per FIG. 8 legend)
Experimental: After 1 day of culture, conditioned media from 384-well plates was collected from each well for gelatin zymography. 8% polyacrylamide (PA) gels were used, and were prepared as previously described^[22] In general, the separating gel component of the zymography gels comprised 7.5 mL of 1.5 M Tris buffer (pH 8.8), 8.0 mL polyacrylamide solution (30%), 10.2 mL gelatin A (3 mg/mL), 2.7 mL water, 300 μL SDS, 300 μL 10% ammonium persulfate, and 36 μL TEMED. The separating gel was allowed to gel for 40 min at room temperature. The stacking gel was then prepared by mixing 5.0 mL of 0.5 M Tris buffer (pH 6.8), 2.6 mL polyacrylamide solution (30%), 12.2 mL water, 200 μL SDS, 150 μL 10% ammonium persulfate, and 30 μL TEMED. The stacking gel was poured on top of each gel and allowed to sit for 40 mins.
For each sample, 12 μL of conditioned media was mixed with 3 μL loading dye, and 12 μL was loaded into each lane. Running buffer comprising 25 mM Tris, 190 mM glycine and 0.1% SDS was used for gel electrophoresis. Following protein separation on the PA gels, gels were washed in 2.5% Triton X (3 times, 10 min each) to remove residual SDS, followed by DI water (5 times, 30 min each). Gels were then placed in an incubation buffer (50 mM Tris buffer pH 7.5 containing 5 mM CaCl2, 200 mM NaCl) and incubated at 37° C. overnight. […]

With `CC(C)CC(=O)Nc1[nH]nc2c1CN(C(=O)C1CCN(C)CC1)C2(C)C` [PHA-793887] the “invasion, selectivity towards LAM-SMCs vs control SMCs” value [1] was “selective decrease” and the “cell viability, selectivity towards LAM-SMCs vs control SMCs” value [2] was “selective decrease”.
For TC-A 2317 NCI, the “invasion, selectivity towards LAM-SMCs vs control SMCs” value [1] was “selective decrease” and the “cell viability, selectivity towards LAM-SMCs vs control SMCs” value [2] was “selective decrease”.
With `Cc1ncc(-c2ccnc(Nc3ccc(S(C)(=O)=O)cc3)n2)n1C(C)C` [AZD5438] the “invasion, selectivity towards LAM-SMCs vs control SMCs” value [1] was “selective decrease” and the “cell viability, selectivity towards LAM-SMCs vs control SMCs” value [2] was “selective decrease”.
With `Nc1nc(Nc2ccc(S(N)(=O)=O)cc2)nn1C(=S)Nc1c(F)cccc1F` [Cdk1/2 inhibitor] the “invasion, selectivity towards LAM-SMCs vs control SMCs” value [1] was “selective decrease” and the “cell viability, selectivity towards LAM-SMCs vs control SMCs” value [2] was “selective decrease”.
In the case of `CN1CCC(c2c(O)cc(O)c3c(=O)cc(-c4ccccc4Cl)oc23)C1CO` (single isomer, unassigned; (+)) [(+)-P276], the “invasion, selectivity towards LAM-SMCs vs control SMCs” value [1] is reported as “selective decrease” and the “cell viability, selectivity towards LAM-SMCs vs control SMCs” value [2] is reported as “selective decrease”.
In the case of `Cc1cc(Nc2cc(N3CCN(C)CC3)nc(/C=C/c3ccccc3)n2)n[nH]1` [ENMD-2076], the “invasion, selectivity towards LAM-SMCs vs control SMCs” value [1] is reported as “selective decrease” and the “cell viability, selectivity towards LAM-SMCs vs control SMCs” value [2] is reported as “selective decrease”.
For `CNC(=O)[C@H](Cc1c[nH]c2ccccc12)NC(=O)[C@@H](CC(=O)NO)CC(C)C` [GM6001], the cell invasion ([1]; 10 μM, invasive LAM-SMCs, 3D hydrogels) was “modest, yet statistically significant decrease in cell invasion”.
In the case of bevacizumab, the tumor metastasis [3] is given as “increased tumor metastasis” and the tumor size [3] is given as “decreased tumor sizes”.
In the case of `C[C@@H](N)[C@H]1CC[C@H](C(=O)Nc2ccncc2)CC1` [Y-27632], the cell invasion ([1]; Y-27632 treatment (10 μM per FIG. 8 legend), LAM-SMCs) is reported as “significantly decreased cell invasion”, the cell invasion [4] is reported as “significantly decreased cell invasion” and the cell viability ([2]; Y-27632 treatment (10 μM per FIG. 8 legend), LAM-SMCs, 3D HA gels) is reported as “neither cell viability nor MMP9 secretion levels of LAM-SMCs were affected”. The MMP9 secretion levels [5] was “neither cell viability nor MMP9 secretion levels of LAM-SMCs were affected”.
